Reference: patent publication US20010027216A1, “Method for preventing hormone induced adverse effects” (priority 2000, published 2001)
Entries after “also recorded” stand apart in the source; their conditions may differ.

Key:
Type in all cases: cell-based, human
[1] = system: ECC-1 endometrial cancer cells; test: ECC-1 cell proliferation, [3H]thymidine incorporation into DNA; settings: for cell proliferation rate (cpm): concentration range 0.01 to 4 μM (FIG. 1 panel A); for effect on endometrial cancer cell growth over increasing concentrations: three days
Method: Cells were cultured in DMEM containing penicillin (100 U/ml), streptomycin (0.1 mg/ml)) nystatin (12.5 (g/ml), insulin (0.6 (g/ml), and 10% FCS. Cells were stripped of endogenous steroids according to the procedure of Vignon et al. (1987, Biochem. Biophys. Res. Comm., 146:1502-8) by successive passages in medium without phenol red containing 10% and then 3% of charcoal-stripped FCS. Cells were seeded into 96 multiwell plates (5,000 cells per well) in DMEM containing 3% of charcoal-stripped FCS. After one day the medium was changed to one containing the solubilized carotenoid or THF alone. The medium was changed daily to ensure a continuous supply of carotenoid. After incubation, the number of cells and the rate of cell proliferation were estimated by the incorporation of [^3H]thymidine incorporation into cellular DNA, as described in U.S. Pat. No. 5,827,900. Cell growth was also measured by direct cell counting with a Coulter counter after trypsinization and dilution in Isotone-II (Coulter Electronics, Luton, England). A good correlation was found between the two methods. ECC-1 cells were incubated with increasing concentrations of the isoflavones genistein and daidzein, the two primary isoflavones in soy products, and with soy extract. Cell proliferation after three days was measured by [^3H]thymidine incorporation into DNA (FIG. 1, panel A). […] ECC-1 cells were also incubated with a single high concentration (40 μM) of each of genistein, daidzein and soy extract. Cell proliferation was assayed daily over the course of three days.

[2] = system: MCF-7 mammary cancer cells; test: MCF-7 cell proliferation, [3H]thymidine incorporation; settings: for phytoestrogen-induced cell proliferation: genistein 4 μM
Method: (§1) Cells were cultured in DMEM containing penicillin (100 U/ml), streptomycin (0.1 mg/ml)) nystatin (12.5 (g/ml), insulin (0.6 (g/ml), and 10% FCS. Cells were stripped of endogenous steroids according to the procedure of Vignon et al. (1987, Biochem. Biophys. Res. Comm., 146:1502-8) by successive passages in medium without phenol red containing 10% and then 3% of charcoal-stripped FCS. Cells were seeded into 96 multiwell plates (5,000 cells per well) in DMEM containing 3% of charcoal-stripped FCS. After one day the medium was changed to one containing the solubilized carotenoid or THF alone. The medium was changed daily to ensure a continuous supply of carotenoid.
(§2) After incubation, the number of cells and the rate of cell proliferation were estimated by the incorporation of [^3H]thymidine incorporation into cellular DNA, as described in U.S. Pat. No. 5,827,900. Cell growth was also measured by direct cell counting with a Coulter counter after trypsinization and dilution in Isotone-II (Coulter Electronics, Luton, England). A good correlation was found between the two methods.
The comparative effects of estradiol and genistein supplementation on the proliferation of the hormone-dependent cell lines MCF-7 mammary cancer and ECC-1 endometrial cancer were examined (FIG. 2).
MCF-7 mammary cancer cells were stimulated by genistein (4 μM) and test cultures were additionally supplemented with lycopene or phytoene or a combination of both, at either physiological concentrations (FIG. 6, panel A) or at about one order of magnitude greater than the physiological concentrations (FIG. 6, panel B).

[3] = system: MDA-231 mammary cancer cells; test: MDA-231 cell proliferation, [3H]thymidine incorporation
Method: as §1, §2
Thus genistein not only stimulates hormone-dependent cancer cell proliferation, but IGF-I as well as other growth factors further augment this effect.

[4] = stimulated by estradiol at 10 nM (FIG. 4)
[5] = stimulated by genistein at 1 μM (FIG. 4)
[6] = 40 μM, after one day of incubation (FIG. 1, panel B)
[7] = 0.4 and 4 μM, after three days (FIG. 1, panel A)
[8] = high, non-physiological concentrations of the individual carotenoids (FIG. 6, panel B)
[9] = lycopene 3 to 5 μM, IGF-1 30 nM
[10] = lycopene 3 to 5 μM, three days in culture

CC1=C(/C=C/C(C)=C/C=C/C(C)=C/C=C/C=C(C)/C=C/C=C(C)/C=C/C2=C(C)C(=O)[C@@H](O)CC2(C)C)C(C)(C)C[C@H](O)C1=O [astaxanthin]
estradiol-induced cell proliferation [1, 4]: effectively inhibited | genistein-induced cell proliferation [1, 5]: effective inhibitors; also recorded: effectively inhibited

CC1=C(/C=C/C(C)=C/C=C/C(C)=C/C=C/C=C(C)/C=C/C=C(C)/C=C/C2=C(C)CCCC2(C)C)C(C)(C)CCC1 [beta-carotene]
estradiol-induced cell proliferation [1, 4]: effectively inhibited | genistein-induced cell proliferation [1, 5]: effective inhibitors; also recorded: effectively inhibited

O=c1c(-c2ccc(O)cc2)coc2cc(O)ccc12 [daidzein, reference compound]
cell proliferation [1, 6]: significantly increases cell proliferation; also recorded: stimulated cell proliferation | cell proliferation [1, 7]: stimulated cell proliferation | cell proliferation rate (cpm) [1]: significant increase in cell proliferation rate | effect on endometrial cancer cell growth over increasing concentrations [1]: only stimulatory

O=c1c(-c2ccc(O)cc2)coc2cc(O)cc(O)c12 [genistein, reference compound]
effect on proliferation over increasing concentrations ([2]; increasing concentrations (FIG. 2, panel A)): biphasic effects on proliferation, stimulating at low concentrations and inhibiting at high concentrations | stimulatory effect of genistein in the presence of IGF-I ([2]; with IGF-1 30 nM (FIG. 3, panel A)): further augmented | cell proliferation [1, 6]: significantly increases cell proliferation; also recorded: stimulated cell proliferation | cell proliferation ([1]; 40 μM, second day in culture (FIG. 1, panel B)): inhibitory effects | cell proliferation [1, 7]: stimulated cell proliferation | cell proliferation rate (cpm) [1]: significant increase in cell proliferation rate | cell proliferation ([1]; higher, non-physiological concentrations (10 μM), after three days in culture (FIG. 1, panel A)): inhibited cell proliferation | effect on endometrial cancer cell growth over increasing concentrations [1]: biphasic effects on proliferation, stimulating at low concentrations and inhibiting at high concentrations | stimulation of cell growth by genistein ([3]; FIG. 3, panel B): not by genistein

CC(C)=CCC/C(C)=C/C=C/C(C)=C/C=C/C(C)=C/C=C/C=C(C)/C=C/C=C(C)/C=C/C=C(\C)CCC=C(C)C [lycopene]
phytoestrogen-induced cell proliferation [2, 8]: effective in significantly inhibiting | phytoestrogen-induced cell proliferation ([2]; low (physiological) concentration: lycopene 0.4 μM, mixture of phytoene and phytofluene 6 μM (FIG. 6, panel A)): do not significantly affect | IGF stimulation of cell growth [2, 9]: inhibits IGF stimulation | basal growth [2, 10]: significantly inhibited | estrogen-induced (either genistein or estradiol) growth [2, 10]: substantially inhibited; also recorded: significantly inhibited | estradiol-induced cell proliferation ([1]; estradiol 10 nM, various concentrations of lycopene, lowest 0.9 μM (FIG. 5)): all lycopene concentrations tested were effective in inhibiting | genistein-induced cell proliferation ([1]; genistein 1 μM, various concentrations of lycopene, lowest 0.9 μM (FIG. 5)): all lycopene concentrations tested were effective in inhibiting | basal growth [1, 10]: significantly inhibited | estrogen-induced (either genistein or estradiol) growth [1, 10]: substantially inhibited; also recorded: significantly inhibited | estradiol-induced cell proliferation [1, 4]: effectively inhibited | genistein-induced cell proliferation [1, 5]: effective inhibitors; also recorded: effectively inhibited | IGF stimulation of cell growth [3, 9]: inhibits IGF stimulation | cell proliferation compared with controls [3, 9]: reduced to levels less than that of controls

CC(C)=CCC/C(C)=C/CC/C(C)=C/CC/C(C)=C/C=C/C=C(\C)CC/C=C(\C)CC/C=C(\C)CCC=C(C)C [phytoene]
phytoestrogen-induced cell proliferation [2, 8]: effective in significantly inhibiting | genistein-induced cell proliferation [1, 5]: effective inhibitors

IGF-1: Human recombinant IGF-1 purchased from GroPep
cell growth ([2]; IGF-1 30 nM (FIG. 3, panel A)): significantly stimulates cell growth | cell growth ([3]; IGF-1 30 nM (FIG. 3, panel B)): significantly stimulates cell growth
